# Experimental data taken from patent publication US8618299B2, “Azinone-substituted azapolycycle MCH-1 antagonists, methods of making, and use thereof” (Albany Molecular Research, Inc., priority 2009, dated 2013).
# Experiments:
# human MCH-1 receptor = human MCH-1 receptor (Homo sapiens (Human), UniProt Q99705); test: Binding assay for human melanin-concentrating hormone (MCH1) receptor; conditions: membranes from CHO-K1 cells expressing human MCH1 receptor; 1.4 nM [3H]-labeled radioligand, 60 min at 25° C., pH 7.4; Ki from Cheng Prusoff equation
# Experimental: Binding Assay for Human Melanin-Concentrating Hormone (MCH1) Receptor
# Evaluation of the affinity of compounds for the human MCH-1 receptor was accomplished using 4-(3,4,5-tritritiumbenzyloxy)-1-(1-(2-(pyrrolidin-1-yl)ethyl)-1H-indazol-5-yl)pyridin-2(1H)-one and membranes prepared from stable CHO-K1 cells expressing the human MCH1 receptor obtained from Euroscreen (Batch 1138). Cell membrane homogenates (8.92 μg protein) were incubated for 60 min at 25° C. with 1.4 nM of the [^3H]-labeled compound in the absence or presence of the test compound in 50 mM Tris-HCl buffer, pH 7.4. Nonspecific binding was determined in the presence of 50 μM 1-(5-(4-cyanophenyl)bicyclo[3.1.0]hexan-2-yl)-3-(4-fluoro-3-(trifluoromethyl)phenyl)-1-(3-(4-methylpiperazin-1-yl)propyl)urea. Following incubation, the samples were filtered rapidly under vacuum through Skatron 11731 filters, pre-soaked in 0.5% polyethylenimine, and washed with ice-cold 50 mM Tris-HCl buffer, pH 7.4, (wash setting 9,9,0) using a Skatron cell harvester. The filters were counted for radioactivity in a liquid scintillation counter (Tri-Carb 2100TR, Packard) using a scintillation cocktail (Ultima Gold MV, Perkin Elmer).
# The results are expressed as a percent inhibition of the control radioligand specific binding. The IC50 value (concentration causing a half-maximal inhibition of control specific binding) and Hill coefficient (nH) were determined by non-linear regression analysis of the competition curve using Hill equation curve fitting. The inhibition constant (Ki) was calculated from the Cheng Prusoff equation: (Ki=IC50/(1+(L/KD)), where L=concentration of radioligand in the assay, and KD=affinity of the radioligand for the receptor.
# Chain of human MCH-1 receptor (Q99705 whole entry): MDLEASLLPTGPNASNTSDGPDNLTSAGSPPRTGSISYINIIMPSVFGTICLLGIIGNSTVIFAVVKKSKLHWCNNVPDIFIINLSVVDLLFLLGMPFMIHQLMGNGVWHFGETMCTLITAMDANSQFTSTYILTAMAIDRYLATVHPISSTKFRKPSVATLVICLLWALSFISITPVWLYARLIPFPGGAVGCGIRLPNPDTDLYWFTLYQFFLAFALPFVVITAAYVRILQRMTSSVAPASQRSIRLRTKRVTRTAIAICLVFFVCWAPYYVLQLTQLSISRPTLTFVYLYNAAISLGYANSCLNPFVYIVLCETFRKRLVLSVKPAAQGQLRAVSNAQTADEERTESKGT
Compound,melting point [°C],Ki (human MCH-1 receptor) [nM]
"Cl.Cn1c2c(c3ccc(-n4ccc(OCc5ccc(C(F)(F)F)nc5)cc4=O)cc31)CN1CCCC1C2 (stereo not shown) [Example 32, 1-(10-Methyl-2,3,5,10,11,11a-hexahydro-1H-indolizino[7,6-b]indol-8-yl)-4-((6-(trifluoromethyl)pyridin-3-yl)methoxy)pyridin-2(1H)-one Hydrochloride]",255 to 259,24
"Cl.Cn1c2c(c3ccc(-n4ccc(OCc5ccc(C(F)(F)F)nc5)cc4=O)cc31)CN1CCCCC1C2 (stereo not shown) [Example 34, 1-(5-Methyl-5,6,6a,7,8,9,10,12-octahydroindolo[2,3-b]quinolizin-3-yl)-4-((6-(trifluoromethyl)pyridin-3-yl)methoxy)pyridin-2(1H)-one Hydrochloride]",260 to 262,24
"Cl.Cn1c2c(c3ccc(-n4ccc(-c5ccc(C(F)(F)F)nc5)cc4=O)cc31)CN1CCCCC1C2 (stereo not shown) [Example 36, 1-(5-Methyl-5,6,6a,7,8,9,10,12-octahydroindolo[2,3-b]quinolizin-3-yl)-4-(6-(trifluoromethyl)pyridin-3-yl)pyridin-2(1H)-one Hydrochloride]",245 to 248,7
"Cl.O=c1cc(-c2ccc(C(F)(F)F)cc2)ccn1-c1ccc2c3c([nH]c2c1)CC1CCCN1C3 (stereo not shown) [Example 39, 1-(2,3,5,10,11,11a-Hexahydro-1H-indolizino[7,6-b]indol-8-yl)-4-(4-(trifluoromethyl)phenyl)pyridin-2(1H)-one Hydrochloride]",275 to 285,8.5
"Cl.O=c1cc(-c2ccc(C(F)(F)F)nc2)ccn1-c1ccc2c3c([nH]c2c1)CC1CCCN1C3 (stereo not shown) [Example 41, 1-(2,3,5,10,11,11a-Hexahydro-1H-indolizino[7,6-b]indol-8-yl)-4-(6-(trifluoromethyl)pyridin-3-yl)pyridin-2(1H)-one Hydrochloride]",275 to 285,14
"Cl.Cn1c2c(c3ccc(-n4ccc(OCc5ccccc5)cc4=O)nc31)C1CCCN1CC2 (stereo not shown) [Example 44, 4-(Benzyloxy)-1-(7-methyl-2,3,5,6,7,11c-hexahydro-1H-pyrido[3′,2′:4,5]pyrrolo[2,3-g]indolizin-9-yl)pyridin-2(1H)-one Hydrochloride]",130 to 140,12
"Cl.Cn1c2c(c3ccc(-n4ccc(OCc5ccc(F)cc5F)cc4=O)nc31)C1CCCN1CC2 (stereo not shown) [Example 46, 4-(2,4-Difluorobenzyloxy)-1-(7-methyl-2,3,5,6,7,11c-hexahydro-1H-pyrido[3′,2′:4,5]pyrrolo[2,3-g]indolizin-9-yl)pyridin-2(1H)-one Hydrochloride]",134 to 145,16
"Cl.Cn1c2c(c3ccc(-n4ccc(OCc5ccc(Cl)cc5F)cc4=O)nc31)C1CCCN1CC2 (stereo not shown) [Example 47, 4-(4-Chloro-2-fluorobenzyloxy)-1-(7-methyl-2,3,5,6,7,11c-hexahydro-1H-pyrido[3′,2′:4,5]pyrrolo[2,3-g]indolizin-9-yl)pyridin-2(1H)-one Hydrochloride]",150 to 160,10
"Cl.Cn1c2c(c3ccc(-n4ccc(-c5ccc(C(F)(F)F)nc5)cc4=O)nc31)C1CCCN1CC2 (stereo not shown) [Example 48, 1-(7-Methyl-2,3,5,6,7,11c-hexahydro-1H-pyrido[3′,2′:4,5]pyrrolo[2,3-g]indolizin-9-yl)-4-(6-(trifluoromethyl)pyridin-3-yl)pyridin-2(1H)-one Hydrochloride]",290 to 300,47
"Cl.Cn1c2c(c3ccc(-n4ccc(-c5ccc(C(F)(F)F)cc5)cc4=O)nc31)C1CCCN1CC2 (stereo not shown) [Example 49, 1-(7-Methyl-2,3,5,6,7,11c-hexahydro-1H-pyrido[3′,2′:4,5]pyrrolo[2,3-g]indolizin-9-yl)-4-(4-(trifluoromethyl)phenyl)pyridin-2(1H)-one Hydrochloride]",190 to 200,15
"Cl.Cn1c2c(c3ccc(-n4ccc(OCc5ccccc5)cc4=O)nc31)CN1CCCC1C2 (stereo not shown) [Example 50, 4-(Benzyloxy)-1-(11-methyl-5,7,8,9,9a,10-hexahydro-11H-pyrido[3′,2′:4,5]pyrrolo[3,2-f]indolizin-2-yl)pyridin-2(1H)-one Hydrochloride]",240 to 250,16
"Cl.Cn1c2c(c3ccc(-n4ccc(OCc5ccc(F)cn5)cc4=O)nc31)CN1CCCC1C2 (stereo not shown) [Example 51, 4-((5-Fluoropyridin-2-yl)methoxy)-1-(11-methyl-5,7,8,9,9a,10-hexahydro-11H-pyrido[3′,2′:4,5]pyrrolo[3,2-f]indolizin-2-yl)pyridin-2(1H)-one Hydrochloride]",220 to 230,37
"Cl.Cn1c2c(c3ccc(-n4ccc(-c5ccc(C(F)(F)F)cc5)cc4=O)nc31)CN1CCCC1C2 (stereo not shown) [Example 52, 1-(11-Methyl-5,7,8,9,9a,10-hexahydro-11H-pyrido[3′,2′:4,5]pyrrolo[3,2-f]indolizin-2-yl)-4-(4-(trifluoromethyl)phenyl)pyridin-2(1H)-one Hydrochloride]",300 to 305,17
"Cl.Cn1c2c(c3ccc(-n4ccc(-c5ccc(C(F)(F)F)nc5)cc4=O)nc31)CN1CCCC1C2 (stereo not shown) [Example 53, 1-(11-Methyl-5,7,8,9,9a,10-hexahydro-11H-pyrido[3′,2′:4,5]pyrrolo[3,2-f]indolizin-2-yl)-4-(6-(trifluoromethyl)pyridin-3-yl)pyridin-2(1H)-one Hydrochloride]",280 to 290,33
"Cl.Cn1c2c(c3ccc(-n4ccc(OCc5ccc(Cl)cc5F)cc4=O)nc31)CN1CCCC1C2 (stereo not shown) [Example 54, 4-(4-Chloro-2-fluorobenzyloxy)-1-(11-methyl-5,7,8,9,9a,10-hexahydro-11H-pyrido[3′,2′:4,5]pyrrolo[3,2-f]indolizin-2-yl)pyridin-2(1H)-one Hydrochloride]",210 to 220,26
"Cl.Cn1c2c(c3ccc(-n4ccc(OCc5ccc(F)cc5F)cc4=O)nc31)CN1CCCC1C2 (stereo not shown) [Example 55, 4-(2,4-Difluorobenzyloxy)-1-(11-methyl-5,7,8,9,9a,10-hexahydro-11H-pyrido[3′,2′:4,5]pyrrolo[3,2-f]indolizin-2-yl)pyridin-2(1H)-one Hydrochloride]",140 to 150,31
"Cl.Cn1c2c(c3ccc(-n4ccc(OCc5ncc(F)cc5F)cc4=O)nc31)CN1CCCC1C2 (stereo not shown) [Example 56, 4-((3,5-Difluoropyridin-2-yl)methoxy)-1-(11-methyl-5,7,8,9,9a,10-hexahydro-11H-pyrido[3′,2′:4,5]pyrrolo[3,2-f]indolizin-2-yl)pyridin-2(1H)-one Hydrochloride]",220 to 230,121
